Source: patent publication US12233070B2, “Methods for treating benzodiazepine misuse/use disorder” (University of M[…] Center, priority 2020, dated 2025)
“Also recorded” adds a separate entry of the source. Marks after values point to notes of the source that are not given here.

Tests used:
rhesus monkeys [1] = experiment: Observation/sedation, focal animal behavioral scoring; assay type: in vivo, rhesus monkey; settings: at least one dose significantly different from vehicle; out of 22 behaviors; i.v.; N = 4 monkeys
Procedure: For the data shown here, the behavior of each monkey (n=4 total) was scored using a focal animal approach as described previously (Duke et al. 2018, J Pharmacol Exp Ther 366: 145-57). Briefly, a trained observer blind to the drug treatments observed a specific monkey for 5 min and recorded each instance that a particular behavior occurred during 15-s intervals. Scores for each behavior were calculated as the number of 15-s bins in which the behavior occurred (e.g., a maximum score would be 20). For sedation measures, structured exposure to stimuli were included in the observation sessions (Duke et al., 2018). […] Specifically, the observer presented three stimuli: 1) walked at a normal pace towards the cage, 2) spoke the animal's name, and 3) moved the lock used to secure the door of the cage. […] If the monkey attended more slowly (i.e., >3 s following stimuli), the observer scored “moderate sedation”.
The assessment of sedation was initiated during the 5-min sampling period if the animal presented, at any time during that period, with its eyes closed for longer than 3 s. The result of this assessment was recorded for each remaining 15-sec interval of the 60-sec epoch unless eyes opened. Afterwards, eyes closing again initiated the assessment. If eyes remained closed, then the assessment was repeated at the beginning of the next 60-sec epoch 15-sec interval. Therefore, the maximum score for sedation during a 5-min period was 20 (four possible scores for 4×15-sec intervals per min, 5 min total; i.e., 4 possible scores×5 min=20). The order in which animals were observed and the observer performing the scoring each day was randomized. Four observers participated in the scoring throughout the duration of the study; each observer underwent a minimum of 20 hours of training and met an inter-observer reliability criterion of ≥90% agreement with all other observers.
The five-min sampling periods were repeated at multiple times following i.v. injection of TPA023B or vehicle (minutes post injection): 5, 10, 20, 40, 80, 160, 320. Scores were cumulated across the time periods, resulting in a maximum possible cumulative score of 140. TPA023B was compared with alprazolam, and the results have been published by Duke et al. (2018).

rhesus monkeys [2] = experiment: Conflict model of anxiolysis (mult FR, FR+PUN); assay type: in vivo, rhesus monkey; settings: i.v.; for Non-Suppressed, Mean responses/s (SEM) / Suppressed, Mean responses/s (SEM): N = 4 monkeys
Description: The conflict procedure methodology includes a two-component multiple fixed-ratio, fixed-ratio plus punishment schedule (mult FR, FR+PUN). An important feature of this model is that it is highly predictive of clinically active doses in human subjects (Rowlett et al. 2006, Psychopharmacology 184: 201-11). One component of this schedule was associated with a distinctive visual stimulus (e.g., red light) and the other component was associated with a different stimulus (e.g., green light). In each component, completion of 10 responses (FR 10) produced a food pellet followed by a brief (10 sec) timeout period. The component ended following delivery of 5 food pellets or 5 min, whichever occurred first. A 10-min timeout period occurred before each of four cycles with two components (1 red, 1 green) per cycle. When performance in both components of the multiple schedule was stable, responding in one component was suppressed by superimposing a FR schedule of response-produced electric shock. Under the superimposed schedule, every nth response (n=15-25, adjusted for each monkey depending on individual performance) produced shock. Once responding was stable (at least three sessions in which suppressed responding was less than 50% of non-suppressed responding, with no upward or downward trend in response rates in either component), investigational compounds were administered i.v. during the extended timeout periods using a cumulative dosing technique. This technique allowed determination of a four-point dose-response function in a single session.
Table 2 summarizes data for TPA023B in the conflict procedure (n=4 monkeys, 2 females and 2 males), with alprazolam as a positive control. Average responses when vehicle was administered was 2.2 in the non-suppressed component, decreased by ˜98% by shock presentation in the suppressed component (mean=0.05 responses). For non-suppressed responding, TPA023B had no effects on mean rates of responding or percent of control over a 100-fold dose range (0.01 to 1.0 mg/kg, i.v.). […] This effect was similar to that observed with 0.03 mg/kg, i.v., of alprazolam. A striking characteristic of TPA023B in this procedure is the lack of attenuation of rates of responding at higher doses.

Sprague-Dawley rats [3] = experiment: Pulmonary ventilation, whole body plethysmography; assay type: in vivo, rat; settings: 3.0 mg/kg, i.p.; N=8 rats
Procedure: We first assessed the effects of TPA023B, in comparison with alprazolam, using whole body plethysmography (WBP; DSI systems). For these studies, adult male Sprague-Dawley rats (n=8) were habituated to the chambers for 30 min. The chamber was then filled with 21% oxygen, sealed, and pressure fluctuation measured for 1 min. Next, the chamber was opened and the rats were injected with alprazolam or TPA023B, i.p., and placed into the sealed chamber for a 15 min pretreatment time. The chamber was again filled with 21% oxygen, and for 1 min, fluctuating pressure amounts were recorded to obtain tidal volume (lung capacity), breaths/minute, and minute volume (lung capacity per unit time).

[4] = design: key to Pharmacokinetics: “poor” - low bioavailability and/or short half-life; “good” - potent with long half-life; settings: in vivo; cited from earlier work
[5] = molecular target: α5 subunit-containing GABAA receptors (Homo sapiens, UniProt P18507+P31644); design: key to Subtype α5: act as partial positive modulators for particular subtype combinations; none: zero efficacy (i.e., antagonism) at other subtypes; settings: cited from earlier work
[6] = molecular target: α2 subunit-containing GABAA receptors (Homo sapiens, UniProt P18507+P47869); design: key: act as partial positive modulators for particular subtype combinations; none: zero efficacy (i.e., antagonism) at other subtypes; settings: cited from earlier work
[7] = molecular target: α3 subunit-containing GABAA receptors (Homo sapiens, UniProt P18507+P34903); design: key: act as partial positive modulators for particular subtype combinations; none: zero efficacy (i.e., antagonism) at other subtypes; settings: cited from earlier work
[8] = molecular target: α1 subunit-containing GABAA receptors (Homo sapiens, UniProt P14867+P18507); design: key to Subtype α1: act as partial positive modulators for particular subtype combinations; none: zero efficacy (i.e., antagonism) at other subtypes; settings: cited from earlier work
Sprague-Dawley rats [9] = experiment: Food-maintained responding (FR 10), ligand alone; settings: for effect on rates of responding: diazepam 3.0 mg/kg
rhesus monkeys [10] = experiment: Midazolam self-administration (PR) after TPA023B pretreatment; assay type: in vivo, rhesus monkey; settings: midazolam alone, PR procedure
Procedure: To test this, we have trained monkeys to self-administer the short-acting conventional benzodiazepine midazolam (0.056 mg/kg/injection, i.v.) in the PR procedure, as described above. During test sessions, we initially kept the training dose of midazolam constant, and administered i.v. pretreatments of TPA023B (0.003, 0.01, 0.03, 0.1, 0.3 mg/kg, of vehicle) immediately prior to the beginning of the session. A key consideration for any pharmacotherapy, as well as interpretation of blockade of reinforcing effects generally, is the extent to which the blockade is specific to the drug target and not a generalized suppression of behavior, e.g., due to sedative-motor effects inhibiting the ability of the monkey to press the lever. Another possible confounding factor that would potentially result in blockade of drug taking is general sickness or perceptual alterations. In particular, appetite suppression would represent an undesirable side effect in a benzodiazepine addiction pharmacotherapy.
To further evaluate the extent to which attenuation of responding was due to pharmacological antagonism and to evaluate an exemplary range of effective doses, we evaluated single doses of TPA023B administered prior to sessions in which differing doses of midazolam were tested.

rats = experiment: Blockade of diazepam suppression of responding (30 min pretreatment); assay type: in vivo, rat; settings: ligand 3.0 mg/kg; diazepam 30 min pretreatment; FIG. 12A; N=5
Procedure: This profile is very similar to that of TPA023B despite the structural differences. […] For both compounds, we chose 3.0 mg/kg, i.p., in rats based on published literature or pilot studies in our laboratories.
FIGS. 12A and 12B illustrate the results of acute dependency testing using these compounds.

[11] = rhesus monkey; cited from earlier work
Sprague-Dawley rats [12] = experiment: Precipitated withdrawal/acute dependence: responding 60 min after diazepam bolus; assay type: in vivo, rat
Procedure: Acute dependence can occur after single exposures to the benzodiazepine chlordiazepoxide, but not to an α2/3GABAA selective ligand (Fischer et al. 2013, Psychopharmacology 227: 347-54). Here, the extent to which TPA023B can precipitate withdrawal in rats following a single, large bolus dose of diazepam was studied. […] Once rates of responding were stable, doses of diazepam, the non-selective benzodiazepine antagonist flumazenil, and TPA023B were administered prior to the session.

α5 subunit-containing GABAA receptors, sequence (P31644 32-462): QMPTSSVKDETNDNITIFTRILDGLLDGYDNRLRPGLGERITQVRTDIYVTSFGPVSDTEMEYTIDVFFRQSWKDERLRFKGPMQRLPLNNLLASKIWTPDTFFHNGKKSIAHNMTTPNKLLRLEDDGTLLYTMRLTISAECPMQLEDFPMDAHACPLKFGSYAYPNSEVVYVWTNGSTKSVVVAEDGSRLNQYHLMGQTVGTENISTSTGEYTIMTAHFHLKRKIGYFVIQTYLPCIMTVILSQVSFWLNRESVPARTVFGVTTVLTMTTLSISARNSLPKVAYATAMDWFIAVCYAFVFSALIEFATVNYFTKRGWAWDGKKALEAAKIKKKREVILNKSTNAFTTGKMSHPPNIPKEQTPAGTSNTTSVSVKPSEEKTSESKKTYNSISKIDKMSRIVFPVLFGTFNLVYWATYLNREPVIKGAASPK
α5 subunit-containing GABAA receptors, sequence (P18507 40-475): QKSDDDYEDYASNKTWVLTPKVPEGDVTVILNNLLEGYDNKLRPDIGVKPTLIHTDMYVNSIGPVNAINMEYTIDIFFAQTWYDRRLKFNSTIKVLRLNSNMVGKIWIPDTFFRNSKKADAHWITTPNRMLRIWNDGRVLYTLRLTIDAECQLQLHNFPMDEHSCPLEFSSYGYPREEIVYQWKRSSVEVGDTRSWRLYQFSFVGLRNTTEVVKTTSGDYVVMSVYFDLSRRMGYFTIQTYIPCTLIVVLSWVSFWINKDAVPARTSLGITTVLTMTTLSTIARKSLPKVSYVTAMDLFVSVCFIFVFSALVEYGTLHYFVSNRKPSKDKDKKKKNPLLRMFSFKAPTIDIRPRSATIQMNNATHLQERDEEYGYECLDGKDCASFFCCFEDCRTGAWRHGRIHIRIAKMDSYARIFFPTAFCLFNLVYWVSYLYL
α5 subunit-containing GABAA receptors, sequence (P28472 26-473 partner): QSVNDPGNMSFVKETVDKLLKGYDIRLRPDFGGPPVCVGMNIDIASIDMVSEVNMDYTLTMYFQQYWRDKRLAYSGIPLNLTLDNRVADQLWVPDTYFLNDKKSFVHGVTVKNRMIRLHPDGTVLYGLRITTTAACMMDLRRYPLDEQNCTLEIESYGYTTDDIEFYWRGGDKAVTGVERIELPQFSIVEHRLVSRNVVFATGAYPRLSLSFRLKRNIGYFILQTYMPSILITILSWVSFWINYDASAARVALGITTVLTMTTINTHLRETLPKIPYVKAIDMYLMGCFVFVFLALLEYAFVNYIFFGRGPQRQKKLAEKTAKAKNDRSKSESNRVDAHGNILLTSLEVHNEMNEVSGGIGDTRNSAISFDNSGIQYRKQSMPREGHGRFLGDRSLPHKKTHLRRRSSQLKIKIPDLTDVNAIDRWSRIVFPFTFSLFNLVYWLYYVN
α2 subunit-containing GABAA receptors, sequence (P47869 29-451): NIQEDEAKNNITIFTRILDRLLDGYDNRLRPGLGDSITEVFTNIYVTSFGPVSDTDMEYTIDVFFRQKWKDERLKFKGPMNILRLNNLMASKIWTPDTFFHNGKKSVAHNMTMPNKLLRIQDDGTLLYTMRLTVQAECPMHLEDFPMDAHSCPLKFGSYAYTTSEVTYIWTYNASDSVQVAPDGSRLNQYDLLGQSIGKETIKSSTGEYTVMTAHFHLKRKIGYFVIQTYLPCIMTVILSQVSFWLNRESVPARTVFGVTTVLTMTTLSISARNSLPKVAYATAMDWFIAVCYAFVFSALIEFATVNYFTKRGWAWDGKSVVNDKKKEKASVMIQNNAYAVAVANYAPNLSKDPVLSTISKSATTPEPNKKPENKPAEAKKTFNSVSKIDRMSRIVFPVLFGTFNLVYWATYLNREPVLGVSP
α2 subunit-containing GABAA receptors, sequence (P18507 40-475): as the sequence (P18507 40-475) above
α2 subunit-containing GABAA receptors, sequence (P28472 26-473 partner): as the sequence (P28472 26-473 partner) above
α3 subunit-containing GABAA receptors, sequence (P34903 29-492): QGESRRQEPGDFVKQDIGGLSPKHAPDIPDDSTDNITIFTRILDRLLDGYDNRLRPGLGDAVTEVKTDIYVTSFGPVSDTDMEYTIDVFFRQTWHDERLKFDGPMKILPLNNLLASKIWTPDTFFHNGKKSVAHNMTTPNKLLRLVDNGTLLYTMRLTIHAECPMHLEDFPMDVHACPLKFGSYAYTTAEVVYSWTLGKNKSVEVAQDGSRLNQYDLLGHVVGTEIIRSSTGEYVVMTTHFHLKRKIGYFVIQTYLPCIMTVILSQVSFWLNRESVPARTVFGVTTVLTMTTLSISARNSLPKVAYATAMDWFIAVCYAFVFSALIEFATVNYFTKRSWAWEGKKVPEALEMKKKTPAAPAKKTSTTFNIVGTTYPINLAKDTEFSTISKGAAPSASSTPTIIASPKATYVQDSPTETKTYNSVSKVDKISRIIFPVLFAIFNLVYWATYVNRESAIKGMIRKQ
α3 subunit-containing GABAA receptors, sequence (P18507 40-475): as the sequence (P18507 40-475) above
α3 subunit-containing GABAA receptors, sequence (P28472 26-473 partner): as the sequence (P28472 26-473 partner) above
α1 subunit-containing GABAA receptors, sequence (P14867 28-456): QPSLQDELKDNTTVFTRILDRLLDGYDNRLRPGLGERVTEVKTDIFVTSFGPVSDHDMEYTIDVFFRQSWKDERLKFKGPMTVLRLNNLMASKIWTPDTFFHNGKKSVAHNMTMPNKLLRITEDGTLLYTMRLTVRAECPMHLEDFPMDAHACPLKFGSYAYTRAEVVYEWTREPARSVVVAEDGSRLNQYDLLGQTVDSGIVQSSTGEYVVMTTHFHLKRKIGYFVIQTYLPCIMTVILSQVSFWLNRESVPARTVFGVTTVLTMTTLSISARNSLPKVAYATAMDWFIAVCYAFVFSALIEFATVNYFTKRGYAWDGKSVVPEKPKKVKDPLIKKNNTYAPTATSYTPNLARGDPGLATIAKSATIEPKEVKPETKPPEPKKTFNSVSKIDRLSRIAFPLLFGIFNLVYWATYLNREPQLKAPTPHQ
α1 subunit-containing GABAA receptors, sequence (P18507 40-475): as the sequence (P18507 40-475) above
α1 subunit-containing GABAA receptors, sequence (P28472 26-473 partner): as the sequence (P28472 26-473 partner) above

With Cc1nnc2n1-c1ccc(Cl)cc1C(c1ccccc1)=NC2 [Alprazolam, alprazolam] the “Significant behavioral effects: Decrease” value (rhesus monkeys [1]) was “Exploration; also recorded: Passive Visual, Tactile/Oral”, the “Significant behavioral effects: Increase” value (rhesus monkeys [1]) was “Sedation, Deep Sedation,; also recorded: Observable Ataxia; also recorded: Rest/Sleep Posture, Moderate” and the “Non-Suppressed, Mean responses/s (SEM)” value (rhesus monkeys [2]; 0.03 mg/kg) was 1.8 (0.31) responses/s. For the same compound, the “Suppressed, Mean responses/s (SEM)” value (rhesus monkeys [2]; 0.03 mg/kg) was 1.9 (0.10)* responses/s, the “effect on non-suppressed responding” value (rhesus monkeys [2]; 0.3 mg/kg) was “markedly attenuated” and the “Non-Suppressed, Mean responses/s (SEM)” value (rhesus monkeys [2]; 0.3 mg/kg) was 0.18 (0.09)* responses/s. The “Suppressed, Mean responses/s (SEM)” value (rhesus monkeys [2]; 0.3 mg/kg) was 0.10 (0.10) responses/s, the breathing frequency (Sprague-Dawley rats [3]) was “significantly reduced” and the minute volume (Sprague-Dawley rats [3]) was “significantly reduced”.

In the case of Cn1ncnc1COc1nn2c(-c3ccccc3)nnc2cc1C1CCC1 [MRK-067], the “PK” value [4] is listed as “poor”.

In the case of MRK-409, the “Subtype α5” value [5] is given as “partial”, the “Subtype α2” value [6] is given as “partial” and the “Subtype α3” value [7] is given as “partial”. For the same compound, the Pharmacokinetics [4] was “good” and the “Subtype α1” value [8] was “partial”.

For CN1C(=O)CN=C(c2ccccc2)c2cc(Cl)ccc21 [diazepam], the “mean rates of responding (percent of baseline control), ligand alone” value (Sprague-Dawley rats [9]; N=8 rats, FIGS. 10A to 10C) was “significantly decreased”, the “effect on rates of responding” value (Sprague-Dawley rats [9]; 30 min pre-treatment) was “most robust effects” and the “effect on rates of responding” value (Sprague-Dawley rats [9]; 60 min pre-treatment) was “no effects”.

For Cn1ncnc1COc1nn2c(-c3ccccc3F)nnc2cc1C1CCC1 [MRK-696], the “Subtype α5” value [5] is listed as “partial”, the “Subtype α2” value [6] is listed as “partial” and the “Subtype α3” value [7] is listed as “partial”. The Pharmacokinetics [4] was “poor” and the “Subtype α1” value [8] was “partial”.

In the case of Cc1ncc2n1-c1ccc(Cl)cc1C(c1ccccc1F)=NC2 [midazolam, reference compound], the “dose showing maximal self-administration” value (rhesus monkeys [10]) is reported as 0.018 mg/kg/injection.

In the case of Cn1ncnc1COc1nn2c(-c3cc(F)ccc3F)nnc2cc1C(C)(C)C [L-838,417], the “Subtype α5” value [5] is listed as “partial”, the “ability of diazepam to suppress rates of responding” value (rats) is listed as “blocked” and the “Subtype α2” value [6] is listed as “partial”. The “Subtype α3” value [7] was “partial”, the “PK” value [4] was “Poor” and the Pharmacokinetics [4] was “poor”. For the same compound, the “Subtype α1” value [8] was “none” and the “efficacy at α1GABAA subtype” value [8] was “antagonist; also recorded: no efficacy”.

For N#Cc1cc(F)ccc1-c1cc(-c2cnc3nc(C(F)(F)F)ccn23)ccc1F [MRK-898], the “Subtype α5” value [5] is listed as “none”, the “efficacy at α5GABAA subtype” value [5] is listed as “antagonist” and the “Subtype α2” value [6] is listed as “partial”. For the same compound, the bioavailability [11] was 49%, the half-life [11] was 13 h and the “Subtype α3” value [7] was “partial”. The Pharmacokinetics [4] was “good”, the “Subtype α1” value [8] was “none” and the “efficacy at α1GABAA subtype” value [8] was “antagonist”.

With CCOC(=O)c1ncn2c1CN(C)C(=O)c1cc(F)ccc1-2 [flumazenil, reference compound] the “ability of diazepam to suppress rates of responding” value (rats) was “blocked”, the “rates of responding 60 min after 3.0 mg/kg diazepam (precipitated withdrawal)” value (Sprague-Dawley rats [12]; all doses tested, vs ligand alone, FIGS. 11A and 11B) was “robustly suppressed responding” and the “rates of responding after 60-min pretreatment of diazepam (acute dependence)” value (Sprague-Dawley rats [12]; ligand 3.0 mg/kg, FIG. 12B, N=5) was “significant decrease”.
